Molecular target: T1, chimeric α7-5HT3 ion channel (UniProt P23979+P36544, M226I/T225I)
T1 construct: expressed in transfected cells
Experiment: Cell-based FLIPR assay of agonist activity on the chimeric α7-5HT3 receptor (Calcium Green fluorescence, intracellular calcium)
Settings: SH-EP1 cells expressing chimeric α7-5HT3 ion channel
From the text: The cDNA encoding the N-terminal 201 amino acids from the human α7 nAChR that contain the ligand binding domain of the ion channel was fused to the cDNA encoding the pore forming region of the mouse 5HT3 receptor as described by Eisele J L, et al., Chimacric nicotinic-serotonergic receptor combines distinct ligand binding and channel specificities, Nature (1993), December 2;366(6454):479–83, and modified by Groppi, et al., WO 00/73431. The chimeric α7–5HT3 ion channel was inserted into pGS 175 and pGS 179 which contain the resistance genes for G-418 and hygromycin B, respectively. […]
To assay the activity of the α7–5HT3 ion channel, cells expressing the channel were plated into each well of either a 96 or 384 well dish (Corning #3614) and grown to confluence prior to assay. […] The activity of compounds on the chimeric α7–5HT3 ion channel was analyzed on FLIPR. […] Fluorescent emission was measured above 525 nanometers with an appropriate F-stop to maintain a maximal signal to noise ratio. Agonist activity of each compound was measured by directly adding the compound to cells expressing the chimeric α7-5HT3 ion channel and measuring the resulting increase in intracellular calcium that is caused by the agonist-induced activation of the chimeric ion channel. […]

T1 sequence (P36544+P23979 fused P36544:T225I/P36544:M226I): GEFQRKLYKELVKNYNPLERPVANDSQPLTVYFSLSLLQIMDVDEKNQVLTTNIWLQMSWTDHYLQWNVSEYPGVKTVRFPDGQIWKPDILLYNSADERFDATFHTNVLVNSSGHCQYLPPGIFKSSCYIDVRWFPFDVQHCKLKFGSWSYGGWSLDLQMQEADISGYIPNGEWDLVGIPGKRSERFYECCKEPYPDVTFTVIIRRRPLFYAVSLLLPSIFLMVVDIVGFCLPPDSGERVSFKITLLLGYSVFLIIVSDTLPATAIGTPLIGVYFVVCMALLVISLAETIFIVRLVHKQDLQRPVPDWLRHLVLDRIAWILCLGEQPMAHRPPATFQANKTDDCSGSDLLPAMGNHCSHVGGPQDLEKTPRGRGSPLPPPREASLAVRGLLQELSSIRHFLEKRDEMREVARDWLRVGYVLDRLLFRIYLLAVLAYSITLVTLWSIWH

Compound: Cl.O=C(N[C@H]1CN2CCC1CC2)c1ccc2cccc(O)c2n1 [Example 8, N-[(3R)-1-azabicyclo[2.2.2]oct-3-yl]-8-hydroxyquinoline-2-carboxamide hydrochloride]
- EC50 (effective concentration needed to cause a 50% maximal increase in intracellular calcium): inactive
